Reference: the NIST ThermoML archive (doi:10.1021/je101144k)

Assays:
[1] = molar heat capacity at constant pressure; settings: 101.33 kPa, Liquid, Small sample (50 mg) DSC
[2] = 101.33 kPa, Liquid; for viscosity: Concentric cylinders viscometry; for mass density: Pycnometric method

NCCO [2-aminoethan-1-ol]
Settings	mass density, 303.15 K [kg/m3]	mass density, 313.15 K [kg/m3]	mass density, 323.15 K [kg/m3]	molar heat capacity at constant pressure, 303.15 K [J/K/mol]	molar heat capacity at constant pressure, 313.15 K [J/K/mol]	molar heat capacity at constant pressure, 323.15 K [J/K/mol]	viscosity, 303.15 K [mPa·s]	viscosity, 313.15 K [mPa·s]	viscosity, 323.15 K [mPa·s]
[1]	–	–	–	163.7	167.98	172.25	–	–	–
[2]	1008.7	1000.4	992.5	–	–	–	15.36	10.26	7.19
